For eight compounds, Activity results are on record in patent publication US7452887B2, “Quinoline- and isoquinoline-based compounds exhibiting ATP-utilizing enzyme inhibitory activity, and compositions, and uses thereof” (Amphora Discovery Corporation, priority 2004, dated 2008).

The structures appear in SMILES notation.

What all share (experiment): HTS ATP-utilizing enzyme assay, off-chip mobility-shift (Caliper HTS 250)
Common to all, as to format: biochemical
Holding throughout (conditions): test compound 10 μM, kinase listed = active (greater than six-sigma from the mean activity of inactive compounds)

One experiment has as its target LCK (Homo sapiens, UniProt P06239). The essentials: (§1)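 Compounds were tested once at 10 μM against kinase with peptide substrate. After 2.5 hrs at 20° C. to 22° C., reactions were terminated with EDTA, and conversion was read as substrate/product ratio by mobility shift.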
For a further experiment, the target named is LYNA (Homo sapiens, UniProt P07948). Summed up: as §1
Sequence of LYNA (P07948 whole entry): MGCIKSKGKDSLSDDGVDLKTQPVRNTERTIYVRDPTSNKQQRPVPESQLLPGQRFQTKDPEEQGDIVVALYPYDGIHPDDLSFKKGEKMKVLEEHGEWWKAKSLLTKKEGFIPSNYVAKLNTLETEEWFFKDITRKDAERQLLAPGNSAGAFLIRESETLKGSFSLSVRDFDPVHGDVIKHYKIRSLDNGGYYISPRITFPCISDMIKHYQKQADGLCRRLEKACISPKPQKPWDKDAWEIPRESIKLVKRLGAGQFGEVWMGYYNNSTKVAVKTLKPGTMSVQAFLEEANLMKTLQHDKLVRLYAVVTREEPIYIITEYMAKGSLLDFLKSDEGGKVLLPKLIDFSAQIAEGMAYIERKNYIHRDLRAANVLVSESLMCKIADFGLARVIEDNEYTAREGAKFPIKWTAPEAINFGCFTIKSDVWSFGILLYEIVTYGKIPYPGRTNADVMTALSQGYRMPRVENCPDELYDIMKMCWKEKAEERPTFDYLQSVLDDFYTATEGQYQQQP
The target of the next experiment is T1, PRAK (Homo sapiens, UniProt Q8IW41).
T1 sequence (Q8IW41 1-473): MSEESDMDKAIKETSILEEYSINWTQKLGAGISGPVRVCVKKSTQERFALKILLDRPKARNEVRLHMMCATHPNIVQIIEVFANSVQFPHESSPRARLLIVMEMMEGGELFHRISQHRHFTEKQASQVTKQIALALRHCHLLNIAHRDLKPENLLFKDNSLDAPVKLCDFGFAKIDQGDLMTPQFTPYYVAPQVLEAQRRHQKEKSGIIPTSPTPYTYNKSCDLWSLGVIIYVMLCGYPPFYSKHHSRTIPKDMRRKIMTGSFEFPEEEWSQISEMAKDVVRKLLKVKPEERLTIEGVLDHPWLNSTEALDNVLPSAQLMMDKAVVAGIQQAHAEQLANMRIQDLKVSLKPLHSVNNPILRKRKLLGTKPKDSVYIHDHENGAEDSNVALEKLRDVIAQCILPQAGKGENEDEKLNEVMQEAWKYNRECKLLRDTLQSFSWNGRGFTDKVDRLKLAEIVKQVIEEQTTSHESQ
Summed up:
as §1

The next experiment addresses ABL1 (Homo sapiens, UniProt P00519). Summed up: as §1
Another experiment addresses T2, NEK2 (Homo sapiens, UniProt P51955).
T2 sequence (P51955 1-445): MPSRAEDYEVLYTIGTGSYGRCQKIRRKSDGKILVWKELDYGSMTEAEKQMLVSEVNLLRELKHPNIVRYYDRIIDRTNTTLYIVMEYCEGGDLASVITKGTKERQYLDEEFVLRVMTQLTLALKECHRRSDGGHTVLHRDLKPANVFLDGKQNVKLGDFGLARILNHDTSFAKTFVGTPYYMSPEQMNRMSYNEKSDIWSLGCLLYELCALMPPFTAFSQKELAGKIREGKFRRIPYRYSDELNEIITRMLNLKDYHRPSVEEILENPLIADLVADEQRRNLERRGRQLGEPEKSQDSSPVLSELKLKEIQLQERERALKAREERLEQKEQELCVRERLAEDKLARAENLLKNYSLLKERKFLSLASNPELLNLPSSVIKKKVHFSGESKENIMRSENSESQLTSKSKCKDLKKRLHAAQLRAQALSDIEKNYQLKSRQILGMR
The essentials: as §1

The target in another experiment is MAPKAPK2 (Homo sapiens, UniProt P49137). The essentials: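 Phosphorylation of a peptide substrate was quantified by Caliper mobility-shift separation of substrate and product after 2.5 h at 20-22 °C, with compounds tested at 10 μM. Inhibition was normalized to EDTA-quenched (100%) and DMSO (0%) controls; six-sigma thresholds flagged actives.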
Sequence of MAPKAPK2 (P49137 whole entry): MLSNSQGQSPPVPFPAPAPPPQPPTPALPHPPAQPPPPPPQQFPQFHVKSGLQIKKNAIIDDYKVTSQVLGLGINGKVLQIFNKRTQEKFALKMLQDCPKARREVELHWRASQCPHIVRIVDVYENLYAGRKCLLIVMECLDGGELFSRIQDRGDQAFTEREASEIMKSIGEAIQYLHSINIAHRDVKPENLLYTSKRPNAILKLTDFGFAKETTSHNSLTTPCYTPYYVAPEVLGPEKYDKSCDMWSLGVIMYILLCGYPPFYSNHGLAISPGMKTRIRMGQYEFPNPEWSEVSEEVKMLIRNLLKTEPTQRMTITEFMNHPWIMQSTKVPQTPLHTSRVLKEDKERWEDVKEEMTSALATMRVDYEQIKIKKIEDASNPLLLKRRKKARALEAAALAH
The target of the next experiment is SRC (Homo sapiens, UniProt P12931). Summed up:
as §1

The target in another experiment is C-TAK1 (Homo sapiens, UniProt P27448). Summed up:
as §1

A further experiment deals with T3, FLT-3 (Homo sapiens, UniProt P36888).
T3 sequence (P36888 27-993): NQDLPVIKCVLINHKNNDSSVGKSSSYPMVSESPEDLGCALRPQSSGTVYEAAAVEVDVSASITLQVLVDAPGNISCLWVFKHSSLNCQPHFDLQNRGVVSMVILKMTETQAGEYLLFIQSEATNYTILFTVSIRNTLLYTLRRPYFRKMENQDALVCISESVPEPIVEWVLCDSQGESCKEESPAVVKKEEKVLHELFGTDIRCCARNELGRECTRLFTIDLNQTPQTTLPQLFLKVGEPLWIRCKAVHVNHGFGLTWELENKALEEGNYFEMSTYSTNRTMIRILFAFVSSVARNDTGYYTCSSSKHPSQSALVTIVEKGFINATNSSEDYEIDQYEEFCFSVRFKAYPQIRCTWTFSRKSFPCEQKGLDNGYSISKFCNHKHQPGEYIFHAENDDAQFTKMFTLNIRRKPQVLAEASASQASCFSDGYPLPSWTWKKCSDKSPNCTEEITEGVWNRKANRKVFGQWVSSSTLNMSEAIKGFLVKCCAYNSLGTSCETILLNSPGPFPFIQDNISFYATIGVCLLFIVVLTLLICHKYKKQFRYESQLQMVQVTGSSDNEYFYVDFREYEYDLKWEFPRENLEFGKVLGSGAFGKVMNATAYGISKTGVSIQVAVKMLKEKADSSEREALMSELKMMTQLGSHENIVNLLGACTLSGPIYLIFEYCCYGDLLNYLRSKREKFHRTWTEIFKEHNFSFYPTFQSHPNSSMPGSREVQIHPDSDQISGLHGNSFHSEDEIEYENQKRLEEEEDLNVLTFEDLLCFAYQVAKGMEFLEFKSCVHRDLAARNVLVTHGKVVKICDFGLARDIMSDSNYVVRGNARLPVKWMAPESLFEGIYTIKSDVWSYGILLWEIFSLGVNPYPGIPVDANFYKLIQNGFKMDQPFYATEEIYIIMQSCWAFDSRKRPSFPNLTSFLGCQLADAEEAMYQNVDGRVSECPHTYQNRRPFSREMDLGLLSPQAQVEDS
The essentials:
as §1

The target of the next experiment is PDGFR-α (Homo sapiens, UniProt P16234). Summed up: as §1
Sequence of PDGFR-α (P16234 24-1089): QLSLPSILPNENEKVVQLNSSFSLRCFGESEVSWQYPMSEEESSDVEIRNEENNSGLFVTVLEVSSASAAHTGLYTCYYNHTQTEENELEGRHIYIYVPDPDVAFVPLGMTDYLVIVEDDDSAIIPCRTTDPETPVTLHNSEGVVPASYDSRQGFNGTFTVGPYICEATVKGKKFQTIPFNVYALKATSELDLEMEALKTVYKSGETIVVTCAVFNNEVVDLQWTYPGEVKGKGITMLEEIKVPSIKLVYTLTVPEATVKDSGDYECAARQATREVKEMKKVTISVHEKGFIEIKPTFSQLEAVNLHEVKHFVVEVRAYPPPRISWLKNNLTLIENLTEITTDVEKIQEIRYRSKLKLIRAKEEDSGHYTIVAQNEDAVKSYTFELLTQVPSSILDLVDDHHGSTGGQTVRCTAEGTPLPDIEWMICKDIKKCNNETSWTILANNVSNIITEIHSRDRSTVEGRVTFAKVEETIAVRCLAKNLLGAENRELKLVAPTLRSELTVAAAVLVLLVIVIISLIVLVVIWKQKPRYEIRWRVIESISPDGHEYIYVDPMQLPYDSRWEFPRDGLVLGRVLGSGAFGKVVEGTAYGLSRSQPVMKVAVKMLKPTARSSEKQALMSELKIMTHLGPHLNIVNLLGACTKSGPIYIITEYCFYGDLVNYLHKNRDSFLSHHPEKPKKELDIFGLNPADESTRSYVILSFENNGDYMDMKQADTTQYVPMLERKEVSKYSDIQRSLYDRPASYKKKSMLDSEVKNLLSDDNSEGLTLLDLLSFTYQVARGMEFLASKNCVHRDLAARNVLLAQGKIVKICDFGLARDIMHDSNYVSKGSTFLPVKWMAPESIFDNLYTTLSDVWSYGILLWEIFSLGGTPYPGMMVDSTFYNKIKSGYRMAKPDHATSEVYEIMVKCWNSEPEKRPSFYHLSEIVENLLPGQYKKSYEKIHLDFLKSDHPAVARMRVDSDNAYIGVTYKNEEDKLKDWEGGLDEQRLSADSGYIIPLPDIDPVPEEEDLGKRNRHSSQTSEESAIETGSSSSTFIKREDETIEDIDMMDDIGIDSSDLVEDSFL
The next experiment deals with T4, BMX (Homo sapiens, UniProt P51813).
T4 sequence (P51813 1-675): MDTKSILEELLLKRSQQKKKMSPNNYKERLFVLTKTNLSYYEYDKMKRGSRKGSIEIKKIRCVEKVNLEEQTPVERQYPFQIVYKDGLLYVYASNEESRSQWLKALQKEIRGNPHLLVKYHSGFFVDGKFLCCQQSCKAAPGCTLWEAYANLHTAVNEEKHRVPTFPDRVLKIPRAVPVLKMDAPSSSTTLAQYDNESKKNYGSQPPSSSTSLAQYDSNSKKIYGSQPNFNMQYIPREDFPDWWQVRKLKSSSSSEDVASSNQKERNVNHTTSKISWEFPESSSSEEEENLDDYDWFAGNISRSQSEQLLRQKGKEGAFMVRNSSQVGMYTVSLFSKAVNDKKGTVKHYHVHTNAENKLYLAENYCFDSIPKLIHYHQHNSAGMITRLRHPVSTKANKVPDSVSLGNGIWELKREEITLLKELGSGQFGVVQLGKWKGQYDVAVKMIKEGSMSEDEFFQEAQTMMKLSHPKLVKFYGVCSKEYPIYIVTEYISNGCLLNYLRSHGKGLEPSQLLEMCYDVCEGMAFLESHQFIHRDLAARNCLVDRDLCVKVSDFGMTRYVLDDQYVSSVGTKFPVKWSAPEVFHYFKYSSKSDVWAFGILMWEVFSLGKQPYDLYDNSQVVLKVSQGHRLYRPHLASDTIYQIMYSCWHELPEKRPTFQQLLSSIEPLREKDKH
The essentials:
as §1

A further experiment addresses AKT3 (Homo sapiens, UniProt Q9Y243). The essentials: as §1

Sequence of ABL1 (P00519 whole entry): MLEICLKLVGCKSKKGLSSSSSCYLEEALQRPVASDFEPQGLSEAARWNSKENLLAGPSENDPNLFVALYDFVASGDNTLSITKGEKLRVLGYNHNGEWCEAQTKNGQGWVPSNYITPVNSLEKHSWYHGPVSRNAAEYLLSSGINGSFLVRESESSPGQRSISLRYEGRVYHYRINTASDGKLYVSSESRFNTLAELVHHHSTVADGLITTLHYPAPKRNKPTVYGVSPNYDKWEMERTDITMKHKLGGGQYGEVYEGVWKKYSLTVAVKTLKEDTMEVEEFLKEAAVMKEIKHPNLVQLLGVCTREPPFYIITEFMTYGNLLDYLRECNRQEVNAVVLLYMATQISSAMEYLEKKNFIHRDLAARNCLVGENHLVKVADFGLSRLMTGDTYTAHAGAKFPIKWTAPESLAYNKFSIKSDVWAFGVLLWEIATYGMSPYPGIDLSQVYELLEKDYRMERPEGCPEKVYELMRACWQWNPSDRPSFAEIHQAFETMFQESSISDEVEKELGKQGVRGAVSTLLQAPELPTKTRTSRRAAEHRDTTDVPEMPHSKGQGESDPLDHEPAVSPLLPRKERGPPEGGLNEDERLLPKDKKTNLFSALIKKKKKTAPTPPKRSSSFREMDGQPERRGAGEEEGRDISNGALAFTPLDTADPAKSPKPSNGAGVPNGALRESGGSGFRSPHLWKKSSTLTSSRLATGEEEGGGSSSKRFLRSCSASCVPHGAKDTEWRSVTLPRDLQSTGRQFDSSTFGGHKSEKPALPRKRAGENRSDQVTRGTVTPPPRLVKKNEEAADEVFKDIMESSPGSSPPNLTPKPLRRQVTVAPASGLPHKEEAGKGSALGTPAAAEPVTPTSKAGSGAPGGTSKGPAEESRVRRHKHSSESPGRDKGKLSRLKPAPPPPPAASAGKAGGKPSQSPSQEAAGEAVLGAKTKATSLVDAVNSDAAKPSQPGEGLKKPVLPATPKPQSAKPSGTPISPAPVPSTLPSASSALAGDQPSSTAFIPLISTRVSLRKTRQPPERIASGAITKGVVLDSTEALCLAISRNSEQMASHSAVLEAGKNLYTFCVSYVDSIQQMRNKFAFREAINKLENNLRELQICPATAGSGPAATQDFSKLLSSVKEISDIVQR
Sequence of SRC (P12931 whole entry): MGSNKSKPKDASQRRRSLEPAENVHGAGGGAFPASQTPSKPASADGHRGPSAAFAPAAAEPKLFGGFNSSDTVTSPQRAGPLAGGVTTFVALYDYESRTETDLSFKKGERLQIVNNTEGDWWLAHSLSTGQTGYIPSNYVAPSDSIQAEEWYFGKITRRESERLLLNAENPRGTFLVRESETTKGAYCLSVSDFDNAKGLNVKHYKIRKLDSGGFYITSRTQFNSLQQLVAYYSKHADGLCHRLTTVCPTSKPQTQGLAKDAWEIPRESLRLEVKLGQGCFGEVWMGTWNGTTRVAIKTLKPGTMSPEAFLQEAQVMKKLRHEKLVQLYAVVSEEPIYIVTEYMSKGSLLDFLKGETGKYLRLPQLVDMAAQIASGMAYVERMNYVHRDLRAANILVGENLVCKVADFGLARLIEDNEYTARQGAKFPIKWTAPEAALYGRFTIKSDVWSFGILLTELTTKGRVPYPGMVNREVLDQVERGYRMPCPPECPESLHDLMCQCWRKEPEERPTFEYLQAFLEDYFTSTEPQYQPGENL
Sequence of C-TAK1 (P27448 whole entry): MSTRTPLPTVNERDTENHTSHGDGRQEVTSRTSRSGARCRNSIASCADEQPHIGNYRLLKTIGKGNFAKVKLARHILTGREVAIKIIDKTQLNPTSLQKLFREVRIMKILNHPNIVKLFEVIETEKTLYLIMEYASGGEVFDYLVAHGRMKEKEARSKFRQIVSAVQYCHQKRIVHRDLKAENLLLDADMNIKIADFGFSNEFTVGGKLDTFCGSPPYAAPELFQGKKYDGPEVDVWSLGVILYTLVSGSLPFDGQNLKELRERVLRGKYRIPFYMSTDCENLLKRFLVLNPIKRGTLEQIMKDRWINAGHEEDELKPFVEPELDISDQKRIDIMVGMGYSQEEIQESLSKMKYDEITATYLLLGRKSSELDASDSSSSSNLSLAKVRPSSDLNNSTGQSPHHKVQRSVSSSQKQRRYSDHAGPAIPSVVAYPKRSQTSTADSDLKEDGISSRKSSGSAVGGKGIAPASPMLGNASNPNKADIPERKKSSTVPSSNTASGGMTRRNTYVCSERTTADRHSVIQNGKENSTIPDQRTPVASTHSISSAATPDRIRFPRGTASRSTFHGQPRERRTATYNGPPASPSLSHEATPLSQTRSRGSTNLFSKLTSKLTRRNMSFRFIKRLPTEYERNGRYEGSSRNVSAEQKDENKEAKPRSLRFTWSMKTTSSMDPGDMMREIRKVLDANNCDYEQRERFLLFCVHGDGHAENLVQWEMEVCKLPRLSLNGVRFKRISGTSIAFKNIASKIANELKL
Sequence of LCK (P06239 whole entry): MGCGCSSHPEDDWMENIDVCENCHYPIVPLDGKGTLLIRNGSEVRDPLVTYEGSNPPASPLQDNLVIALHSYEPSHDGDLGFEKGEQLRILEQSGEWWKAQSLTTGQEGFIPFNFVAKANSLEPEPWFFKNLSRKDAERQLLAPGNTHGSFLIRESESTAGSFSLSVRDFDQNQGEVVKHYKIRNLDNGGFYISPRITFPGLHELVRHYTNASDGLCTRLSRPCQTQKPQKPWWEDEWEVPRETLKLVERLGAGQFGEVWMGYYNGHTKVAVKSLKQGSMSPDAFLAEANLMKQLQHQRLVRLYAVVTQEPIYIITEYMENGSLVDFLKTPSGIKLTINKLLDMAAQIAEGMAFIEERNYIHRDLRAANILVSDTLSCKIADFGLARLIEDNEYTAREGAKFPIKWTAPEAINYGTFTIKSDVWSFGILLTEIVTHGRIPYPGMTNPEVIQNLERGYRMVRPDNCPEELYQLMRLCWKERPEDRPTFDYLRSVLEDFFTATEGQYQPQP

With `CN1CCN(c2ccc(Nc3ccnc4ccc(-c5ccccc5-c5ccccc5)cc34)cc2)CC1` [6-(biphenyl-2-yl)-N-(4-(4-methylpiperazin-1-yl)phenyl)quinolin-4-amine], the Activity result is “LCK” at LCK; “LYNA” at LYNA; “PRAK” on PRAK; “ABL” at ABL1; “NEK2” on NEK2.
As to `CN1CCN(c2ccc(Nc3ccnc4ccc(-c5cc6ccccc6s5)cc34)cc2)CC1` [6-(benzo[b]thiophen-2-yl)-N-(4-(4-methylpiperazin-1-yl)phenyl)quinolin-4-amine], the Activity result on MAPKAPK2 was “MAPKAPK2”; on SRC, “SRC”; at C-TAK1 it was “C-TAK1”.
As for `O=C(O)CN1CCN(c2ccc(Nc3ccnc4ccc(-c5ccccc5)cc34)cc2)CC1` [2-(4-(4-(6-phenylquinolin-4-ylamino)phenyl)piperazin-1-yl)acetic acid], the values for the Activity entry on MAPKAPK2, on FLT-3 and on PDGFR-α were “MAPKAPK2”, “FLT-3” and “PDGFR-α”, respectively.
For the compound `CN1CCN(c2ccc(Nc3ccnc4ccc(-c5ccc(OCc6ccccc6)cc5)cc34)cc2)CC1` [6-(4-(benzyloxy)phenyl)-N-(4-(4-methylpiperazin-1-yl)phenyl)quinolin-4-amine], the Activity entry is listed as “BMX” on BMX, “SRC” at SRC and “C-TAK1” at C-TAK1.
`CN1CCN(c2ccc(Nc3ccnc4ccc(-c5cccc(O)c5)cc34)cc2)CC1` [3-(4-(4-(4-methylpiperazin-1-yl)phenylamino)quinolin-6-yl)phenol]: the Activity result at MAPKAPK2 is on record as “MAPKAPK2”; at LCK, “LCK”; at PRAK, “PRAK”; on AKT3 it was “AKT3”; on SRC, “SRC”; at ABL1, “ABL1”.
In the case of `CN1CCN(c2ccc(Nc3ccnc4ccc(-c5csc6ccccc56)cc34)cc2)CC1` [6-(benzo[b]thiophen-3-yl)-N-(4-(4-methylpiperazin-1-yl)phenyl)quinolin-4-amine], the figures for the Activity entry on MAPKAPK2, on PRAK and on ABL1 were “MAPKAPK2”, “PRAK” and “ABL1”, respectively.
As for `CN1CCN(c2ccc(Nc3ccnc4ccc(-c5cccc(Cl)c5Cl)cc34)cc2)CC1` [6-(2,3-dichlorophenyl)-N-(4-(4-methylpiperazin-1-yl)phenyl)quinolin-4-amine], the Activity entry at MAPKAPK2 is “MAPKAPK2”; on LYNA, “LYNA”; at PRAK it was “PRAK”; on C-TAK1 it was “C-TAK1”.
As for `COc1ccc(-c2ccc3nccc(Nc4ccc(N5CCN(CC(=O)O)CC5)cc4)c3c2)cc1` [2-(4-(4-(6-(4-methoxyphenyl)quinolin-4-ylamino)phenyl)piperazin-1-yl)acetic acid], the figures for the Activity entry on MAPKAPK2 and on PDGFR-α were “MAPKAPK2” and “PDGFR-α”, respectively.
